Experimental data: PubChem BioAssay AID2060495 (Molecular Pharmacology Branch, DTP, NCI, 2025)

System: 521955-158-R2-J5-PDC complex spheroid viability
Test: Anticancer human tumor 521955-158-R2-J5-PDC patient-derived pancreatic carcinoma cell line growth inhibition [GQUAD]
Conditions: for IC50: curve of first compound; for viability, T/C: stronger effect = lower value
Method in brief: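 Viability of tumor cells grown as complex spheroids with endothelial and stromal cells, exposed to drug combinations. Top concentration at or near clinical Cmax (else 10 microM), diluted in half-log increments.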

[1] = second compound 0.0316 µM, first compound 0.0316 µM
[2] = second compound 0.0316 µM, first compound 0.316 µM
[3] = second compound 0.1 µM, first compound 0.0316 µM
[4] = second compound 0.1 µM, first compound 0.316 µM
[5] = second compound 0.316 µM, first compound 0.0316 µM
[6] = second compound 0.316 µM, first compound 0.316 µM
[7] = second compound 1 µM, first compound 0.0316 µM
[8] = second compound 1 µM, first compound 0.316 µM
[9] = second compound 3.16 µM, first compound 0.0316 µM
[10] = second compound 3.16 µM, first compound 0.316 µM
[11] = second compound 10 µM, first compound 0.0316 µM
[12] = second compound 10 µM, first compound 0.316 µM
[13] = second compound 0.0316 µM, first compound 0.1 µM
[14] = second compound 0.0316 µM, first compound 1 µM
[15] = second compound 0.0316 µM, first compound 3.16 µM
[16] = second compound 0.0316 µM, first compound 10 µM
[17] = second compound 0.1 µM, first compound 0.1 µM
[18] = second compound 0.1 µM, first compound 1 µM
[19] = second compound 0.1 µM, first compound 3.16 µM
[20] = second compound 0.1 µM, first compound 10 µM
[21] = second compound 0.316 µM, first compound 0.1 µM
[22] = second compound 0.316 µM, first compound 1 µM
[23] = second compound 0.316 µM, first compound 3.16 µM
[24] = second compound 0.316 µM, first compound 10 µM
[25] = second compound 1 µM, first compound 0.1 µM
[26] = second compound 1 µM, first compound 1 µM
[27] = second compound 1 µM, first compound 3.16 µM
[28] = second compound 1 µM, first compound 10 µM
[29] = second compound 3.16 µM, first compound 0.1 µM
[30] = second compound 3.16 µM, first compound 1 µM
[31] = second compound 3.16 µM, first compound 3.16 µM
[32] = second compound 3.16 µM, first compound 10 µM
[33] = second compound 10 µM, first compound 0.1 µM
[34] = second compound 10 µM, first compound 1 µM
[35] = second compound 10 µM, first compound 3.16 µM
[36] = second compound 10 µM, first compound 10 µM
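Further: spheroids exposed to agents for one week before reading.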
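Wherever viability, T/C is given: 100% = DMSO vehicle control viability.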

Cn1ncnc1[C@H]1c2n[nH]c(=O)c3cc(F)cc(c23)N[C@@H]1c1ccc(F)cc1 + Cc1cnc(CNC(=O)c2c(=O)c3ccc(N4CCCN(C)CC4)nc3n3c2sc2ccccc23)cn1 was tested, and the IC50 (second compound 0.0316 µM) was > 0.316 µM, the IC50 (second compound 0.1 µM) was 0.316 µM and the IC50 (second compound 0.316 µM) was < 0.000999 µM. The IC50 (second compound 1 µM) was < 0.000999 µM, the IC50 (second compound 3.16 µM) was < 0.000999 µM and the IC50 (second compound 10 µM) was < 0.000999 µM. It also gave a viability, T/C (second compound 0.0316 µM, first compound 0.000999 µM) of 85.8%, a viability, T/C (second compound 0.0316 µM, first compound 0.00316 µM) of 70.8% and a viability, T/C (second compound 0.0316 µM, first compound 0.00999 µM) of 67.1%. The viability, T/C [1] was 62%, the viability, T/C (second compound 0.0316 µM, first compound 0.0999 µM) was 53.9% and the viability, T/C [2] was 57.5%. The viability, T/C (second compound 0.1 µM, first compound 0.000999 µM) was 62.3%, the viability, T/C (second compound 0.1 µM, first compound 0.00316 µM) was 77.7% and the viability, T/C (second compound 0.1 µM, first compound 0.00999 µM) was 54.8%. It also gave a viability, T/C [3] of 48.2%, a viability, T/C (second compound 0.1 µM, first compound 0.0999 µM) of 54.2% and a viability, T/C [4] of 55.5%. For the same compound, the viability, T/C (second compound 0.316 µM, first compound 0.000999 µM) was 44.1%, the viability, T/C (second compound 0.316 µM, first compound 0.00316 µM) was 48.6% and the viability, T/C (second compound 0.316 µM, first compound 0.00999 µM) was 44.7%. It also gave a viability, T/C [5] of 34.2%, a viability, T/C (second compound 0.316 µM, first compound 0.0999 µM) of 31.3% and a viability, T/C [6] of 24.3%. The viability, T/C (second compound 1 µM, first compound 0.000999 µM) was 26.8%, the viability, T/C (second compound 1 µM, first compound 0.00316 µM) was 25.1% and the viability, T/C (second compound 1 µM, first compound 0.00999 µM) was 23.1%. The viability, T/C [7] was 20%, the viability, T/C (second compound 1 µM, first compound 0.0999 µM) was 21% and the viability, T/C [8] was 16.6%. It also gave a viability, T/C (second compound 3.16 µM, first compound 0.000999 µM) of 16%, a viability, T/C (second compound 3.16 µM, first compound 0.00316 µM) of 19.6% and a viability, T/C (second compound 3.16 µM, first compound 0.00999 µM) of 20.8%. For the same compound, the viability, T/C [9] was 20.4%, the viability, T/C (second compound 3.16 µM, first compound 0.0999 µM) was 15.3% and the viability, T/C [10] was 14%. For the same compound, the viability, T/C (second compound 10 µM, first compound 0.000999 µM) was 20.7%, the viability, T/C (second compound 10 µM, first compound 0.00316 µM) was 15.7% and the viability, T/C (second compound 10 µM, first compound 0.00999 µM) was 21.8%. It also gave a viability, T/C [11] of 19.8%, a viability, T/C (second compound 10 µM, first compound 0.0999 µM) of 15.7% and a viability, T/C [12] of 17.2%.
For CC(=O)O[C@H]1C(=O)[C@@]2(C)[C@H]([C@H](OC(=O)c3ccccc3)[C@]3(O)C[C@H](OC(=O)[C@H](O)[C@@H](NC(=O)c4ccccc4)c4ccccc4)C(C)=C1C3(C)C)[C@]1(OC(C)=O)CO[C@@H]1C[C@@H]2O + Cc1cnc(CNC(=O)c2c(=O)c3ccc(N4CCCN(C)CC4)nc3n3c2sc2ccccc23)cn1, the IC50 (second compound 0.0316 µM) was < 0.0316 µM, the IC50 (second compound 0.1 µM) was < 0.0316 µM and the IC50 (second compound 0.316 µM) was < 0.0316 µM. For the same compound, the IC50 (second compound 1 µM) was < 0.0316 µM, the IC50 (second compound 3.16 µM) was < 0.0316 µM and the IC50 (second compound 10 µM) was < 0.0316 µM. For the same compound, the viability, T/C [1] was 23.3%, the viability, T/C [13] was 14.8% and the viability, T/C [2] was 11.8%. For the same compound, the viability, T/C [14] was 13.7%, the viability, T/C [15] was 11.2% and the viability, T/C [16] was 12.1%. For the same compound, the viability, T/C [3] was 24.5%, the viability, T/C [17] was 15.2% and the viability, T/C [4] was 15.3%. The viability, T/C [18] was 10.4%, the viability, T/C [19] was 12% and the viability, T/C [20] was 14.6%. It also gave a viability, T/C [5] of 24.6%, a viability, T/C [21] of 16.7% and a viability, T/C [6] of 12.1%. For the same compound, the viability, T/C [22] was 10.6%, the viability, T/C [23] was 12% and the viability, T/C [24] was 12.1%. For the same compound, the viability, T/C [7] was 15.1%, the viability, T/C [25] was 11% and the viability, T/C [8] was 8.58%. It also gave a viability, T/C [26] of 9.85%, a viability, T/C [27] of 10.3% and a viability, T/C [28] of 8.46%. The viability, T/C [9] was 9.56%, the viability, T/C [29] was 3.21% and the viability, T/C [10] was 0.92%. For the same compound, the viability, T/C [30] was 0.43%, the viability, T/C [31] was 0.28% and the viability, T/C [32] was 3.89%. The viability, T/C [11] was 0.14%, the viability, T/C [33] was 2.35% and the viability, T/C [12] was 0.16%. The viability, T/C [34] was 0.27%, the viability, T/C [35] was 2.45% and the viability, T/C [36] was 0.15%.
Compound CC1COCCN1c1cc(-c2ccnn2C)c2ccnc(-c3ccn[nH]3)c2n1 (stereo not drawn) + CN(C)c1ccc(Nc2c3ccc(NC(=O)CCN4CCCC4)cc3nc3cc(NC(=O)CCN4CCCC4)ccc23)cc1 has an IC50 (second compound 0.0316 µM) of 0.0661 µM, an IC50 (second compound 0.1 µM) of 0.0546 µM and an IC50 (second compound 0.316 µM) of 0.0557 µM. It also gave an IC50 (second compound 1 µM) of 0.0527 µM, an IC50 (second compound 3.16 µM) of 0.0526 µM and an IC50 (second compound 10 µM) of 0.0326 µM. It also gave a viability, T/C [1] of 86.1%, a viability, T/C [13] of 30.1% and a viability, T/C [2] of 19.8%. It also gave a viability, T/C [14] of 20.6%, a viability, T/C [15] of 26.6% and a viability, T/C [16] of 33.5%. It also gave a viability, T/C [3] of 66.2%, a viability, T/C [17] of 33.7% and a viability, T/C [4] of 21.2%. The viability, T/C [18] was 20.9%, the viability, T/C [19] was 26.8% and the viability, T/C [20] was 40.1%. It also gave a viability, T/C [5] of 69.6%, a viability, T/C [21] of 31.2% and a viability, T/C [6] of 15.5%. The viability, T/C [22] was 19.8%, the viability, T/C [23] was 31.2% and the viability, T/C [24] was 39.2%. It also gave a viability, T/C [7] of 66.5%, a viability, T/C [25] of 31.1% and a viability, T/C [8] of 16%. For the same compound, the viability, T/C [26] was 18.4%, the viability, T/C [27] was 34.4% and the viability, T/C [28] was 30.2%. It also gave a viability, T/C [9] of 68%, a viability, T/C [29] of 28.4% and a viability, T/C [10] of 17.4%. For the same compound, the viability, T/C [30] was 17.5%, the viability, T/C [31] was 25.1% and the viability, T/C [32] was 33.6%. For the same compound, the viability, T/C [11] was 50.1%, the viability, T/C [33] was 36% and the viability, T/C [12] was 21.6%. The viability, T/C [34] was 23.8%, the viability, T/C [35] was 23.2% and the viability, T/C [36] was 26.6%.
With COc1ncnc(C2CC2)c1-c1ncc2cnn(Cc3ccc(-c4nc(C(F)(F)F)cn4C(C)C)cc3)c2n1 + Cc1[nH]c2ccc(F)cc2c1-c1nc2c3cccnc3c3ncccc3c2[nH]1 the IC50 (second compound 0.0316 µM) was > 10 µM, the IC50 (second compound 0.1 µM) was > 10 µM and the IC50 (second compound 0.316 µM) was > 10 µM. The IC50 (second compound 1 µM) was > 10 µM, the IC50 (second compound 3.16 µM) was > 10 µM and the IC50 (second compound 10 µM) was > 10 µM. The viability, T/C [1] was 94%, the viability, T/C [13] was 103% and the viability, T/C [2] was 107%. For the same compound, the viability, T/C [14] was 111%, the viability, T/C [15] was 100% and the viability, T/C [16] was 143%. It also gave a viability, T/C [3] of 101%, a viability, T/C [17] of 99.2% and a viability, T/C [4] of 105%. It also gave a viability, T/C [18] of 126%, a viability, T/C [19] of 104% and a viability, T/C [20] of 121%. It also gave a viability, T/C [5] of 109%, a viability, T/C [21] of 97.5% and a viability, T/C [6] of 125%. For the same compound, the viability, T/C [22] was 112%, the viability, T/C [23] was 116% and the viability, T/C [24] was 126%. It also gave a viability, T/C [7] of 97.8%, a viability, T/C [25] of 91.9% and a viability, T/C [8] of 102%. It also gave a viability, T/C [26] of 112%, a viability, T/C [27] of 133% and a viability, T/C [28] of 119%. It also gave a viability, T/C [9] of 87.7%, a viability, T/C [29] of 90.1% and a viability, T/C [10] of 98.1%. For the same compound, the viability, T/C [30] was 111%, the viability, T/C [31] was 125% and the viability, T/C [32] was 116%. It also gave a viability, T/C [11] of 81.8%, a viability, T/C [33] of 68.6% and a viability, T/C [12] of 101%. The viability, T/C [34] was 102%, the viability, T/C [35] was 109% and the viability, T/C [36] was 116%.
